Among the data in US8299111B2, “Compounds which modulate the CB2 receptor” (Boehringer Ingelheim International GmbH, priority 2006, dated 2012) are agonistic activity values, retold here.

The structures appear in SMILES notation.

The target of the experiment is T1, human CB2R (Homo sapiens, UniProt P34972).
T1 construct: host or cells: CHO cells
T1 sequence (P34972 whole entry): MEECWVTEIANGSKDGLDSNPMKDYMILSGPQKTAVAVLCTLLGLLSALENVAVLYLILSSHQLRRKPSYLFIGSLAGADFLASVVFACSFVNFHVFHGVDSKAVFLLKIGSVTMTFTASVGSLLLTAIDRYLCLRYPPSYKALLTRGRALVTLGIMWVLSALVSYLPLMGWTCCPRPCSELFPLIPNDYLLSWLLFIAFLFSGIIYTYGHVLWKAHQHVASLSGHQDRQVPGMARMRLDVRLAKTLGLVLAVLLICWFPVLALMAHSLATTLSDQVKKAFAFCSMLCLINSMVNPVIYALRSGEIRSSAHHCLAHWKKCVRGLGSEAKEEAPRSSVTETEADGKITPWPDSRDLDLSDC
Briefly: CB2R mediated modulation of cAMP synthesis. Format: cell-based. As to conditions: found through the use of the above described assays (binding and cAMP); CHO cells expressing human CB2R, forskolin-stimulated cAMP. On the procedure:
B. CB2R Mediated Modulation of cAMP Synthesis:
CHO cells expressing human CB2R (Euroscreen) were plated at a density of 5000 cells per well in 384 well plates and incubated overnight at 37° C. After removing the media, the cells were treated with test compounds diluted in stimulation buffer containing 1 mM IBMX, 0.25% BSA and 10 uM Forskolin. The assay was incubated for 30 minutes at 37° C. Cells were lysed and the cAMP concentration was measured using DiscoverX -XS cAMP kit, following the manufacturer's protocol. In this setting, agonists will decrease forskolin induced production of cAMP while inverse agonists will further increase forskolin induced production of cAMP. EC50 of agonists were calculated as follows. The maximal amount of cAMP produced by forskolin compared to the level of cAMP inhibited by 1 uM CP55940 is defined as 100%. The EC50 value of each test compound was determined as the concentration at which 50% of the forskolin-stimulated cAMP synthesis was inhibited. Data was analyzed using a four-parameter logistic model. (Model 205 of XLfit 4.0).
Turning to `Cn1nc(C2CC2)cc1NC(=O)C(C)(C)S(=O)(=O)c1ccc(F)cc1F` [N-(5-Cyclopropyl-2-methyl-2H-pyrazol-3-yl)-2-(2,4-difluoro-benzenesulfonyl)-2-methyl-propionamide], the agonistic activity result is given as “agonistic activity”.

Regarding `CC(C)c1cc(NC(=O)C(C)(C)S(=O)(=O)c2ccc(Cl)cc2)n(C)n1` [2-(4-Chloro-benzenesulfonyl)-N-(5-isopropyl-2-methyl-2H-pyrazol-3-yl)-2-methyl-propionamide], the agonistic activity entry was “agonistic activity”.

As to `CC(C)(C(=O)Nc1nc(-c2ccc(Cl)cc2)cs1)S(=O)(=O)c1ccc(S(C)(=O)=O)cc1` [N-[4-(4-chlorophenyl)-1,3-thiazol-2-yl]-2-methyl-2-{[4-(methylsulfonyl)phenyl]sulfonyl}propanamide], the agonistic activity result was “agonistic activity”.

Take `CC(C)(C)c1coc(NC(=O)C(C)(C)S(=O)(=O)c2ccc(Cl)cc2)n1` [N-(4-tert-Butyl-oxazol-2-yl)-2-(4-chloro-benzenesulfonyl)-2-methyl-propionamide]: the agonistic activity entry is “agonistic activity”.

As to `CCCc1cc(NC(=O)C(C)(C)S(=O)(=O)c2ccc(OC)cc2)on1` [2-[(4-methoxyphenyl)sulfonyl]-2-methyl-N-(3-propylisoxazol-5-yl)propanamide], the agonistic activity entry was “agonistic activity”.

`CC(C)(C)c1cc(NC(=O)C(C)(C)S(=O)(=O)c2ccc(C#N)cc2F)no1` [N-(5-tert-Butyl-isoxazol-3-yl)-2-(4-cyano-2-fluoro-benzenesulfonyl)-2-methyl-propionamide]: the agonistic activity result was “agonistic activity”.

On to `COc1ccc(S(=O)(=O)C(C)(C)C(=O)Nc2cc(C(C)(C)C)on2)cc1` [N-(5-tert-Butyl-isoxazol-3-yl)-2-(4-methoxy-benzenesulfonyl)-2-methyl-propionamide], for which the agonistic activity result is on record as “agonistic activity”.

For `CC(C)(C)c1cc(NC(=O)C(C)(C)S(=O)(=O)c2cccs2)no1` [N-(5-tert-Butyl-isoxazol-3-yl)-2-methyl-2-(thiophene-2-sulfonyl)-propionamide], the agonistic activity result is listed as “agonistic activity”.

Turning to `Cc1nc(NC(=O)C(C)(C)S(=O)(=O)c2ccc(C(F)(F)F)nc2)sc1C(C)(C)C` [N-(5-tert-Butyl-4-methyl-thiazol-2-yl)-2-methyl-2-(6-trifluoromethyl-pyridine-3-sulfonyl)-propionamide], the agonistic activity entry is on record as “agonistic activity”.

`COc1ccc(S(=O)(=O)C(C)(C)C(=O)Nc2cc(C(C)(C)C)nn2C)cc1` [N-(5-tert-Butyl-2-methyl-2H-pyrazol-3-yl)-2-(4-methoxy-benzenesulfonyl)-2-methyl-propionamide]: the agonistic activity entry was “agonistic activity”.

With `CC(C)(C)c1cc(NC(=O)C(C)(C)S(=O)(=O)c2ccc(Br)cc2)no1` [2-(4-Bromo-benzenesulfonyl)-N-(5-tert-butyl-isoxazol-3-yl)-2-methyl-propionamide], the agonistic activity result was “agonistic activity”.

On to `CC(C)(C(=O)Nc1nc2ccccc2o1)S(=O)(=O)c1ccc(Cl)cc1` [N-Benzooxazol-2-yl-2-(4-chloro-benzenesulfonyl)-2-methyl-propionamide], for which the agonistic activity result is on record as “agonistic activity”.

For `CCc1sc(NC(=O)C(C)(C)S(=O)(=O)c2ccc(F)cc2F)nc1-c1ccccc1` [2-[(2,4-difluorophenyl)sulfonyl]-N-(5-ethyl-4-phenyl-1,3-thiazol-2-yl)-2-methylpropanamide], the agonistic activity result is listed as “agonistic activity”.

For the compound `CC(C)(C(=O)Nc1nc(-c2ccc(Cl)cc2)cs1)S(=O)(=O)c1ccc(C(F)(F)F)nc1` [N-[4-(4-chlorophenyl)-1,3-thiazol-2-yl]-2-methyl-2-{[6-(trifluoromethyl)pyridin-3-yl]sulfonyl}propanamide], the agonistic activity entry is given as “agonistic activity”.

Take `CC(C)(C)c1cccc(NC(=O)C(C)(C)S(=O)(=O)c2ccc(Cl)cc2)c1` [N-(3-tert-Butyl-phenyl)-2-(4-chloro-benzenesulfonyl)-2-methyl-propionamide]: the agonistic activity result is recorded as “agonistic activity”.

Take `CC(C)(C)c1cc(NC(=O)C(C)(C)S(=O)(=O)c2cccnc2)no1` [N-(5-tert-Butyl-isoxazol-3-yl)-2-methyl-2-(pyridine-3-sulfonyl)-propionamide]: the agonistic activity entry is listed as “agonistic activity”.

Turning to `CC(C)(C(=O)Nc1nc2c(F)cccc2s1)S(=O)(=O)c1ccc(Cl)cc1` [2-[(4-chlorophenyl)sulfonyl]-N-(4-fluoro-1,3-benzothiazol-2-yl)-2-methylpropanamide], the agonistic activity entry is “agonistic activity”.

For `CC(C)(C)c1cc(NC(=O)C(C)(C)S(=O)(=O)c2ccc(C#N)cc2)no1` [N-(5-tert-Butyl-isoxazol-3-yl)-2-(4-cyano-benzenesulfonyl)-2-methyl-propionamide], the agonistic activity result was “agonistic activity”.

For the compound `CC(C)(C)c1cc(NC(=O)C(C)(C)S(=O)(=O)c2ccc(Cl)cc2)ccn1` [N-(2-tert-butylpyridin-4-yl)-2-[(4-chlorophenyl)sulfonyl]-2-methylpropanamide], the agonistic activity entry was “agonistic activity”.

`CC(C)(C)c1cc(NC(=O)C(C)(C)S(=O)(=O)c2cccc(OC(F)(F)F)c2)no1` [N-(5-tert-Butyl-isoxazol-3-yl)-2-methyl-2-(3-trifluoromethoxy-benzenesulfonyl)-propionamide]: the agonistic activity entry is “agonistic activity”.

Regarding `CC(C)(C(=O)Nc1ccc(C(F)(F)F)cc1)S(=O)(=O)c1ccc(Cl)cc1` [2-(4-Chloro-benzenesulfonyl)-2-methyl-N-(4-trifluoromethyl-phenyl)-propionamide], the agonistic activity result is reported as “agonistic activity”.

In the case of `CC(C)(C(=O)Nc1nc2ccccc2s1)S(=O)(=O)c1ccc(Cl)cc1F` [N-1,3-benzothiazol-2-yl-2-[(4-chloro-2-fluorophenyl)sulfonyl]-2-methylpropanamide], the agonistic activity entry is “agonistic activity”.

`Cc1onc(NC(=O)C(C)(C)S(=O)(=O)c2ccc(Cl)cc2)c1C` [2-(4-Chloro-benzenesulfonyl)-N-(4,5-dimethyl-isoxazol-3-yl)-2-methyl-propionamide]: the agonistic activity result is reported as “agonistic activity”.

Regarding `CC(C)(C(=O)Nc1cccc(C(F)(F)F)c1)S(=O)(=O)c1ccc(Cl)cc1` [2-(4-Chloro-benzenesulfonyl)-2-methyl-N-(3-trifluoromethyl-phenyl)-propionamide], the agonistic activity result is listed as “agonistic activity”.

On to `CC(C)(C(=O)Nc1ccc(C(F)(F)F)cn1)S(=O)(=O)c1ccc(C(F)(F)F)cc1` [2-Methyl-2-(4-trifluoromethyl-benzenesulfonyl)-N-(5-trifluoromethyl-pyridin-2-yl)-propionamide], for which the agonistic activity entry is “agonistic activity”.

As for `Cc1cc(NC(=O)C(C)(C)S(=O)(=O)c2ccc(Cl)cc2)no1` [2-(4-Chloro-benzenesulfonyl)-2-methyl-N-(5-methyl-isoxazol-3-yl)-propionamide], the agonistic activity result was “agonistic activity”.

Turning to `Cn1nc(-c2ccccc2)cc1NC(=O)C(C)(C)S(=O)(=O)c1ccc(Cl)cc1F` [2-(4-Chloro-2-fluoro-benzenesulfonyl)-2-methyl-N-(2-methyl-5-phenyl-2H-pyrazol-3-yl)-propionamide], the agonistic activity result is recorded as “agonistic activity”.

On to `CC(C)(C)c1csc(NC(=O)C2(S(=O)(=O)c3ccc(C(F)(F)F)cc3)CCOCC2)n1` [4-(4-Trifluoromethyl-benzenesulfonyl)-tetrahydro-pyran-4-carboxylic acid (4-tert-butyl-thiazol-2-yl)-amide], for which the agonistic activity result is reported as “agonistic activity”.

`CC(C)(C(=O)Nc1cccc(C(F)(F)F)c1)S(=O)(=O)c1ccc(C(F)(F)F)nc1` [2-methyl-N-[3-(trifluoromethyl)phenyl]-2-{[6-(trifluoromethyl)pyridin-3-yl]sulfonyl}propanamide]: the agonistic activity entry is on record as “agonistic activity”.

`CCc1ccnc(NC(=O)C(C)(C)S(=O)(=O)c2ccc(S(C)(=O)=O)cc2)c1` [N-(4-ethylpyridin-2-yl)-2-methyl-2-{[4-(methylsulfonyl)phenyl]sulfonyl}propanamide]: the agonistic activity result was “agonistic activity”.

Turning to `CCc1sc(NC(=O)C(C)(C)S(=O)(=O)c2ccc(Cl)cc2)nc1-c1ccccc1` [2-(4-Chloro-benzenesulfonyl)-N-(5-ethyl-4-phenyl-thiazol-2-yl)-2-methyl-propionamide], the agonistic activity entry is “agonistic activity”.

Regarding `CC(C)(C(=O)Nc1nc(-c2ccc(Cl)cc2)cs1)S(=O)(=O)c1ccc(Cl)cc1F` [2-[(4-chloro-2-fluorophenyl)sulfonyl]-N-[4-(4-chlorophenyl)-1,3-thiazol-2-yl]-2-methylpropanamide], the agonistic activity entry is reported as “agonistic activity”.

Turning to `CC(C)(C(=O)Nc1nc(C2CC2)cs1)S(=O)(=O)c1ccc(S(C)(=O)=O)cc1` [N-(4-cyclopropyl-1,3-thiazol-2-yl)-2-methyl-2-{[4-(methylsulfonyl)phenyl]sulfonyl}propanamide], the agonistic activity entry is on record as “agonistic activity”.

On to `CC(C)(C)c1cnc(NC(=O)C2(S(=O)(=O)c3ccc(Cl)cc3)CCC2)s1` [1-(4-Chloro-benzenesulfonyl)-cyclobutanecarboxylic acid (5-tert-butyl-thiazol-2-yl)-amide], for which the agonistic activity entry is on record as “agonistic activity”.
